In PubChem BioAssay AID1963842 (Molecular Pharmacology Branch, DTP, NCI, 2024):

Tested on: 677734-321-R-J1-PDC complex spheroid viability
Test: Anticancer human tumor 677734-321-R-J1-PDC patient-derived soft tissue sarcoma cell line growth inhibition [POLQ]
Settings: for IC50: curve of first compound; for viability, T/C: stronger effect = lower value
Summary of the method: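 Three-cell-type spheroids modelling solid tumor plus stroma served as the readout system; POL inhibitors were tested individually and in combination, concentration ranges set by clinical Cmax where known.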

[1] = second compound 0.0316 µM, first compound 0.0316 µM
[2] = second compound 0.0316 µM, first compound 0.1 µM
[3] = second compound 0.0316 µM, first compound 0.316 µM
[4] = second compound 0.0316 µM, first compound 1 µM
[5] = second compound 0.0316 µM, first compound 3.16 µM
[6] = second compound 0.0316 µM, first compound 10 µM
[7] = second compound 0.1 µM, first compound 0.0316 µM
[8] = second compound 0.1 µM, first compound 0.1 µM
[9] = second compound 0.1 µM, first compound 0.316 µM
[10] = second compound 0.1 µM, first compound 1 µM
[11] = second compound 0.1 µM, first compound 3.16 µM
[12] = second compound 0.1 µM, first compound 10 µM
[13] = second compound 0.316 µM, first compound 0.0316 µM
[14] = second compound 0.316 µM, first compound 0.1 µM
[15] = second compound 0.316 µM, first compound 0.316 µM
[16] = second compound 0.316 µM, first compound 1 µM
[17] = second compound 0.316 µM, first compound 3.16 µM
[18] = second compound 0.316 µM, first compound 10 µM
[19] = second compound 1 µM, first compound 0.0316 µM
[20] = second compound 1 µM, first compound 0.1 µM
[21] = second compound 1 µM, first compound 0.316 µM
[22] = second compound 1 µM, first compound 1 µM
[23] = second compound 1 µM, first compound 3.16 µM
[24] = second compound 1 µM, first compound 10 µM
[25] = second compound 3.16 µM, first compound 0.0316 µM
[26] = second compound 3.16 µM, first compound 0.1 µM
[27] = second compound 3.16 µM, first compound 0.316 µM
[28] = second compound 3.16 µM, first compound 1 µM
[29] = second compound 3.16 µM, first compound 3.16 µM
[30] = second compound 3.16 µM, first compound 10 µM
[31] = second compound 10 µM, first compound 0.0316 µM
[32] = second compound 10 µM, first compound 0.1 µM
[33] = second compound 10 µM, first compound 0.316 µM
[34] = second compound 10 µM, first compound 1 µM
[35] = second compound 10 µM, first compound 3.16 µM
[36] = second compound 10 µM, first compound 10 µM
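Note: spheroids exposed to compounds for one week.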
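Throughout, for viability, T/C: 100% = vehicle DMSO treated spheroids.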

CC(C)n1c(=O)n(C)c2cnc3cc(F)c(-c4ccc(OCCCN5CCCCC5)nc4)cc3c21 + Nc1ccc(C#CCN(C(=O)Cc2ncc(C(F)(F)F)cc2C(F)(F)F)c2ccc(F)cc2)nn1
IC50 (second compound 0.0316 µM): > 10 µM | IC50 (second compound 0.1 µM): > 10 µM | IC50 (second compound 0.316 µM): > 10 µM | IC50 (second compound 1 µM): > 10 µM | IC50 (second compound 3.16 µM): > 10 µM | IC50 (second compound 10 µM): > 10 µM | viability, T/C [1]: 94% | viability, T/C [2]: 106% | viability, T/C [3]: 103% | viability, T/C [4]: 97.1% | viability, T/C [5]: 87.7% | viability, T/C [6]: 101% | viability, T/C [7]: 99% | viability, T/C [8]: 102% | viability, T/C [9]: 92.2% | viability, T/C [10]: 81.5% | viability, T/C [11]: 72.6% | viability, T/C [12]: 88.8% | viability, T/C [13]: 90.2% | viability, T/C [14]: 92.7% | viability, T/C [15]: 98% | viability, T/C [16]: 112% | viability, T/C [17]: 84.9% | viability, T/C [18]: 94.2% | viability, T/C [19]: 109% | viability, T/C [20]: 85.9% | viability, T/C [21]: 93.6% | viability, T/C [22]: 80.5% | viability, T/C [23]: 84.9% | viability, T/C [24]: 96.3% | viability, T/C [25]: 112% | viability, T/C [26]: 102% | viability, T/C [27]: 95% | viability, T/C [28]: 105% | viability, T/C [29]: 83.3% | viability, T/C [30]: 103% | viability, T/C [31]: 85.3% | viability, T/C [32]: 96.3% | viability, T/C [33]: 93.3% | viability, T/C [34]: 79.5% | viability, T/C [35]: 93% | viability, T/C [36]: 89.2%

COc1cc2cc(C(=O)CCC(=O)O)sc2cc1OC + COC1C(OC(N)=O)C(O)C(Oc2ccc3c(O)c(NC(=O)c4ccc(O)c(CC=C(C)C)c4)c(=O)oc3c2C)OC1(C)C
IC50 (second compound 0.0316 µM): > 10 µM | IC50 (second compound 0.1 µM): > 10 µM | IC50 (second compound 0.316 µM): > 10 µM | IC50 (second compound 1 µM): > 10 µM | IC50 (second compound 3.16 µM): > 10 µM | IC50 (second compound 10 µM): > 10 µM | viability, T/C [1]: 104% | viability, T/C [2]: 99.5% | viability, T/C [3]: 103% | viability, T/C [4]: 96.9% | viability, T/C [5]: 105% | viability, T/C [6]: 102% | viability, T/C [7]: 110% | viability, T/C [8]: 99.6% | viability, T/C [9]: 97.5% | viability, T/C [10]: 107% | viability, T/C [11]: 106% | viability, T/C [12]: 102% | viability, T/C [13]: 113% | viability, T/C [14]: 106% | viability, T/C [15]: 98.8% | viability, T/C [16]: 102% | viability, T/C [17]: 111% | viability, T/C [18]: 102% | viability, T/C [19]: 109% | viability, T/C [20]: 102% | viability, T/C [21]: 104% | viability, T/C [22]: 109% | viability, T/C [23]: 105% | viability, T/C [24]: 102% | viability, T/C [25]: 108% | viability, T/C [26]: 104% | viability, T/C [27]: 114% | viability, T/C [28]: 110% | viability, T/C [29]: 109% | viability, T/C [30]: 103% | viability, T/C [31]: 112% | viability, T/C [32]: 101% | viability, T/C [33]: 109% | viability, T/C [34]: 99% | viability, T/C [35]: 111% | viability, T/C [36]: 111%

O=c1[nH]cc(F)c(=O)[nH]1 + Cc1cccc(N(C)C(=O)C2C(O)CCN2c2nc(C)cc(C(F)(F)F)c2C#N)c1
IC50 (second compound 0.0316 µM): 5.41 µM | IC50 (second compound 0.1 µM): 2.94 µM | IC50 (second compound 0.316 µM): 3.18 µM | IC50 (second compound 1 µM): 5.91 µM | IC50 (second compound 3.16 µM): 6.99 µM | IC50 (second compound 10 µM): 2.89 µM | viability, T/C [1]: 104% | viability, T/C [2]: 110% | viability, T/C [3]: 111% | viability, T/C [4]: 93.9% | viability, T/C [5]: 54.6% | viability, T/C [6]: 44.9% | viability, T/C [7]: 107% | viability, T/C [8]: 103% | viability, T/C [9]: 104% | viability, T/C [10]: 76.5% | viability, T/C [11]: 49.2% | viability, T/C [12]: 44.8% | viability, T/C [13]: 112% | viability, T/C [14]: 108% | viability, T/C [15]: 103% | viability, T/C [16]: 97.7% | viability, T/C [17]: 49.8% | viability, T/C [18]: 47.2% | viability, T/C [19]: 104% | viability, T/C [20]: 106% | viability, T/C [21]: 108% | viability, T/C [22]: 90.9% | viability, T/C [23]: 55.9% | viability, T/C [24]: 45.1% | viability, T/C [25]: 108% | viability, T/C [26]: 105% | viability, T/C [27]: 112% | viability, T/C [28]: 101% | viability, T/C [29]: 54.3% | viability, T/C [30]: 48% | viability, T/C [31]: 104% | viability, T/C [32]: 99.3% | viability, T/C [33]: 105% | viability, T/C [34]: 83% | viability, T/C [35]: 47.6% | viability, T/C [36]: 46.8%

Nc1ccn(C2OC(CO)C(O)C2(F)F)c(=O)n1 (stereo not drawn) + Nc1ccc(C#CCN(C(=O)Cc2ncc(C(F)(F)F)cc2C(F)(F)F)c2ccc(F)cc2)nn1
IC50 (second compound 0.0316 µM): < 0.0316 µM | IC50 (second compound 0.1 µM): < 0.0316 µM | IC50 (second compound 0.316 µM): < 0.0316 µM | IC50 (second compound 1 µM): < 0.0316 µM | IC50 (second compound 3.16 µM): < 0.0316 µM | IC50 (second compound 10 µM): 0.0683 µM | viability, T/C [1]: 15.4% | viability, T/C [2]: 11.3% | viability, T/C [3]: 11.7% | viability, T/C [4]: 10.9% | viability, T/C [5]: 10.4% | viability, T/C [6]: 5.84% | viability, T/C [7]: 17.8% | viability, T/C [8]: 13% | viability, T/C [9]: 11.4% | viability, T/C [10]: 11.2% | viability, T/C [11]: 8.25% | viability, T/C [12]: 6.36% | viability, T/C [13]: 18.4% | viability, T/C [14]: 11.9% | viability, T/C [15]: 13% | viability, T/C [16]: 12.1% | viability, T/C [17]: 11.4% | viability, T/C [18]: 6.35% | viability, T/C [19]: 28.2% | viability, T/C [20]: 11.8% | viability, T/C [21]: 12.3% | viability, T/C [22]: 13.7% | viability, T/C [23]: 10.3% | viability, T/C [24]: 6.64% | viability, T/C [25]: 46.4% | viability, T/C [26]: 15.8% | viability, T/C [27]: 13.1% | viability, T/C [28]: 13.7% | viability, T/C [29]: 9.36% | viability, T/C [30]: 7.65% | viability, T/C [31]: 87.1% | viability, T/C [32]: 31.4% | viability, T/C [33]: 14.1% | viability, T/C [34]: 14.3% | viability, T/C [35]: 10.6% | viability, T/C [36]: 9.19%
